A short description of series [1]: Selectivity index, ratio of CC25 for African green monkey Vero cells to IC25 for Herpes simplex virus 1 KOS. In kind it is toxicity, cell-based. The conditions noted are these: read-out: Selectivity Index.
Series [2] is described as follows: Therapeutic index, ratio of CC50 for African green monkey Vero cells to IC50 for Herpes simplex virus 1 KOS. In kind it is cell-based. The conditions noted are these: read-out: Ratio CC50/IC50.
The nature of series [3]: (§1) Cytotoxicity against Chlorocebus aethiops (African green monkey) Vero cells after 72 hr by XTT assay. The class given is cell-based. The conditions noted are these: chlorocebus sabaeus, Vero cells. (In general: Tetrazolium dyes change colour on reduction, which living cells bring about.)
The test system of a further series is Vero. The series is described as §1. The conditions noted are these: chlorocebus sabaeus, vero, 72 h. The class given is cell-based.
For series [4], the system named is Human alphaherpesvirus 1. The series is described as follows: Antiviral activity against Human herpesvirus 1 strain KOS infected Vero cells after 72 hr by plaque reduction assay. In kind it is functional, organism-based.
Series [5] has as its system Human alphaherpesvirus 1. The series is described as follows: Antiviral activity against Human herpesvirus 1 strain KOS infected Vero cells at 20 umol/L incubated at 4 hr post-infection measured after 68 hr by plaque reduction assay. The class given is functional, organism-based.
The subject of series [6] is Human alphaherpesvirus 1. The experiment in a line: Antiviral activity against Human herpesvirus 1 strain KOS infected Vero cells at 20 umol/L incubated at 2 hr post-infection measured after 70 hr by plaque reduction assay. In kind it is functional, organism-based.
Series [7] relates to Human alphaherpesvirus 1. The experiment in a line: Antiviral activity against Human herpesvirus 1 strain KOS infected Vero cells at 20 umol/L incubated for 2 hr prior to infection measured after 72 hr by plaque reduction assay. The class given is functional, organism-based. In general terms: Plaque reduction counts the foci of infection that form in a cell layer.
The test system of series [8] is Human alphaherpesvirus 1. The series is described as follows: Antiviral activity against Human herpesvirus 1 strain KOS infected Vero cells at 20 umol/L incubated for 4 hr prior to infection measured after 72 hr by plaque reduction assay. The class given is functional, organism-based.
Series [9] deals with Human alphaherpesvirus 1. The experiment in a line: Antiviral activity against Human herpesvirus 1 strain KOS infected Vero cells at 20 umol/L incubated immediately after infection for 72 hr by plaque reduction assay. In kind it is functional, organism-based.
Setting [10] is: Human alphaherpesvirus 1, KOS, Vero, 72 h.
Where [11] appears, read: Human alphaherpesvirus 1, KOS, Vero, 72 h, read-out: IC50.

Structures are written as SMILES. Activity calls are given as the source filed them. No cut-off for these calls is given here.

Usually CC50 stands for the concentration that lowers cell viability or growth by half. By IC25 is commonly meant the concentration at which the effect reaches the 25% level. For orientation: IC50 means the concentration needed to halve the response being measured.

As for `CC1=C(C(=O)Nc2ccccc2Cl)C(c2cccs2)NC(=O)N1` (stereo not drawn), the selectivity ratio is 3.9 in [1] and above 1.2 in series [2]. Moreover, in [3], the CC50 at 72 h was above 100 µM. In the series with Vero, this compound came in with a CC25 of 98.9 µM. Also, in the series with Human alphaherpesvirus 1 [4] (setting [10]), the IC25 is 25.2 µM. Also, the half-inhibitory concentration (IC50) with Human alphaherpesvirus 1 [4] (setting [11]) was found to be 81.5 µM.

As for `CC1=C(C(=O)Nc2ccccc2Cl)C(C(C)c2ccccc2)NC(=O)N1` (stereo not drawn), the figures for the selectivity ratio in series [1] and in [2] were 0.07 and below 1, respectively. Moreover, the CC50 at 72 h in series [3] was 91.5 µM. Further, the CC25 with Vero amounted to 1.7 µM. In the series on Human alphaherpesvirus 1 [4] (setting [10]), this compound returned an IC25 of 21.3 µM. Besides, the half-inhibitory concentration (IC50) in the series with Human alphaherpesvirus 1 [4] (setting [11]) was above 100 µM.

Regarding `CC1=C(C(=O)OCC(C)C)C(c2cccs2)NC(S)=N1` (stereo not drawn), the selectivity ratio in series [1] was determined as 30.6; in series [2], 48.6. In [3], this compound returned a CC50 at 72 h of 87.5 µM. Also, the CC25 in the series with Vero stood at 18.4 µM. The same compound yielded a concentration for an effect of 25% (IC25) in the series with Human alphaherpesvirus 1 [4] (setting [10]) of 0.6 µM. Besides, the half-maximal inhibitory concentration (IC50) in the series with Human alphaherpesvirus 1 [4] (setting [11]) was 1.8 µM.

Turning to `CC1=C(C(=O)Nc2ccc(F)cc2)C(c2ccccc2)NC(=O)N1` (stereo not drawn), the values for the selectivity ratio in [1] and in series [2] were 48.6 and above 1, respectively. The CC50 at 72 h in series [3] is above 100 µM. For the same compound, the CC25 in the series with Vero was 43.8 µM. In the series with Human alphaherpesvirus 1 [4] (setting [10]), this compound returned an IC25 of 0.9 µM. Moreover, in the series on Human alphaherpesvirus 1 [4] (setting [11]), the half-maximal inhibitory concentration (IC50) was above 100 µM.

As to `CC1=C(C(=O)Nc2ccc(Cl)cc2)C(c2cccs2)NC(=O)N1` (stereo not drawn), the selectivity ratio in series [1] was 7.1; in series [2] it was above 1.6. The compound further registered a CC50 at 72 h in series [3] above 100 µM. For the same compound, the CC25 with Vero came to 83.2 µM. The compound also yielded a concentration for an effect of 25% (IC25) in the series with Human alphaherpesvirus 1 [4] (setting [10]) of 11.7 µM. Further, the IC50 in the series with Human alphaherpesvirus 1 [4] (setting [11]) was determined as 59.7 µM.

For the compound `CCCOC(=O)C1=C(C)NC(=S)NC1c1cccs1` (stereo not drawn), the selectivity ratio in series [1] was determined as 0.3; in series [2] it was 2.9. Moreover, half-maximal cytotoxicity in [3] (CC50 at 72 h) was put at 23.6 µM. For the same compound, in the series on Vero, the CC25 was determined as 0.5 µM. It took 1.5 µM to reach the 25% level in the series on Human alphaherpesvirus 1 [4] (setting [10]) (IC25). For the same compound, in the series on Human alphaherpesvirus 1 [4] (setting [11]), the IC50 amounted to 7.9 µM.

On to `CC1=C(C(=O)Nc2ccc(Br)cc2)C(c2ccccc2)NC(=O)N1` (stereo not drawn), for which the selectivity ratio in series [1] was 356; in [2], above 2.3. The same compound had a CC50 at 72 h in series [3] above 100 µM. The compound further displayed a CC25 in the series on Vero of 71.3 µM. Further, the 25% effect concentration (IC25) with Human alphaherpesvirus 1 [4] (setting [10]) was determined as 0.2 µM. Also, in the series on Human alphaherpesvirus 1 [4] (setting [11]), the half-maximal inhibitory concentration (IC50) turned out to be 43.3 µM.

Take `CC1=C(C(=O)Oc2ccccc2)C(c2ccccc2)NC(=O)N1` (stereo not drawn): the values for the selectivity ratio in series [1] and in series [2] were 9.4 and above 1.1, respectively. The cytotoxic concentration (CC50) at 72 h in series [3] was above 100 µM. The compound also returned a CC25 in the series on Vero of 98 µM. Further, in the series on Human alphaherpesvirus 1 [4] (setting [10]), the IC25 was 10.4 µM. The half-inhibitory concentration (IC50) with Human alphaherpesvirus 1 [4] (setting [11]) was 89.7 µM.

Consider `CC1=C(C(=O)Nc2ccccc2Cl)C(c2ccc(Br)cc2)NC(=O)N1` (stereo not drawn), for which the selectivity ratio is 936 in series [1] and above 3 in series [2]. Moreover, the CC50 at 72 h in series [3] was above 100 µM. For the same compound, the CC25 in the series with Vero worked out at 84.3 µM. This compound showed an IC25 in the series on Human alphaherpesvirus 1 [4] (setting [10]) of 0.09 µM. Also, the IC50 in the series with Human alphaherpesvirus 1 [4] (setting [11]) worked out at 32.7 µM.

For `CC1=C(C(=O)NC2CCCCC2)C(c2ccccc2)NC(=O)N1` (stereo not drawn), the values for the selectivity ratio in series [1] and in [2] were 38 and above 1, respectively. This compound also registered a half-maximal cytotoxic concentration (CC50) at 72 h in series [3] above 100 µM. For the same compound, the CC25 in the series with Vero worked out at 7.6 µM. For the same compound, the IC25 in the series on Human alphaherpesvirus 1 [4] (setting [10]) stood at 0.2 µM. Also, the IC50 in the series on Human alphaherpesvirus 1 [4] (setting [11]) was above 100 µM.

Regarding `CC1=C(C(=O)OC(C)(C)C)C(c2cccs2)NC(=O)N1` (stereo not drawn), the selectivity ratio in series [1] and in series [2] was below 1 each time. The CC50 at 72 h in series [3] was above 100 µM. The same compound displayed a CC25 in the series on Vero of 76.7 µM. Also, the IC25 result with Human alphaherpesvirus 1 [4] was “inactive”. The half-maximal inhibitory concentration (IC50) entry in the series on Human alphaherpesvirus 1 [4] (vero) is listed as “Not Active”.

As to `COC(=O)C1=C(C)NC(=O)NC1c1ccc(Br)cc1` (stereo not drawn), the result in the series with Human alphaherpesvirus 1 [5] and with Human alphaherpesvirus 1 [6] was Active. Besides, the outcome in the series with Human alphaherpesvirus 1 [7], in the series on Human alphaherpesvirus 1 [8] and in the series with Human alphaherpesvirus 1 [9] was inactive. The selectivity ratio turned out to be 123 in [1] and 111 in series [2]. Besides, the midpoint of cytotoxicity in [3], the CC50 at 72 h, lay at 100 µM. For the same compound, in the series with Vero, the CC25 was determined as 12.3 µM. For the same compound, the concentration for an effect of 25% (IC25) in the series on Human alphaherpesvirus 1 [4] (setting [10]) was determined as 0.1 µM. Besides, in the series on Human alphaherpesvirus 1 [4] (setting [11]), the IC50 came to 0.9 µM.

As to `COc1cccc(C2NC(=O)NC(C)=C2C(=O)Nc2ccccc2Cl)c1` (stereo not drawn), the values for the selectivity ratio in series [1] and in [2] were 5 and above 1, respectively. The CC50 at 72 h in series [3] is above 100 µM. Also, in the series with Vero, the CC25 came to 45.6 µM. For the same compound, the 25% effect concentration (IC25) in the series on Human alphaherpesvirus 1 [4] (setting [10]) was determined as 9.1 µM. Besides, in the series on Human alphaherpesvirus 1 [4] (setting [11]), the IC50 was above 100 µM.

Values taken from ChEMBL document CHEMBL3045494, “Inhibitory effect and structureactivity relationship of some Biginelli-type pyrimidines against HSV-1” (Med Chem Res, 2013).
